Reference: patent US6506775B1, “Substituted benzylaminopiperidine compounds” (Pfizer INC, priority 1995, dated 2003)

What was measured:
[1] = tested on: [Sar^9, Met(O2)^11]substance P-induced tapping; assay: [Sar9, Met(O2)11]substance P-induced tapping test in gerbils; format: in vivo; settings: repetitive hind paw tapping, Examples 3 and 5 compared with the corresponding no halosubstituted compounds
Protocol: The activity of the compounds of this invention against CNS disorders is determined in a [Sar^9, Met(O2)^11]substance P-induced tapping test in gerbils. More specifically, gerbils are lightly anesthetized with ether and the skull surface is exposed. [Sar^9, Met(O2)^11]substance P or vehicle (5 μl) are administered directly into the lateral ventricles via a 25 gauge needle inserted 3.5 mm below lambda. Following injection, gerbils are placed in 2 l beaker individually and monitored for repetitive hind paw tapping. Some compounds prepared in the following Examples were tested in accordance with these testing methods.

Compound `COc1ccc(C(C)(C)C#CC(F)(F)F)cc1CN[C@H]1CCCN[C@H]1c1ccccc1.Cl.Cl` has a melting point of 225 to 227 °C.
In the case of `COc1ccc(C(C(F)(F)F)C(F)(F)F)cc1CN[C@H]1CCCN[C@H]1c1ccccc1.Cl.Cl` [Example 5, (2S,3S)-2-Phenyl-3-(5-(2,2,2-trifluoro-1-(trifluoromethyl)ethyl)-2-methoxybenzyl)aminopiperidine dihydrochloride], the “activity against CNS disorders” value [1] was “unexpectedly improved activity against CNS disorders” and the melting point was 290 to 294 °C.
For `COc1ccc(C(F)(C(F)(F)F)C(F)(F)F)cc1CN[C@H]1CCCN[C@H]1c1ccccc1.Cl.Cl`, the melting point was 265 to 270 °C.
`Cl.Cl.FC(F)(F)c1ccc(Oc2ccccc2)c(CN[C@H]2CCCN[C@H]2c2ccccc2)c1` gave a melting point of 190 to 197 °C.
Work on `Cl.Cl.Fc1ccc(C(F)(F)F)cc1CN[C@H]1CCCN[C@H]1c1ccccc1` yielded a melting point of 195 to 203 °C.
With `COc1ccc(C(F)(F)F)cc1CN[C@H]1CCCN[C@H]1c1ccccc1.Cl.Cl` [Example 3, (2S,3S)-3-(2-Methoxy-5-(trifluoromethyl)benzyl)amino-2-phenylpiperidine dihydrochloride] the “activity against CNS disorders” value [1] was “unexpectedly improved activity against CNS disorders” and the melting point was 228 to 233 °C.
`CC(F)(F)c1ccc(OC(F)(F)F)c(CN[C@H]2CCCN[C@H]2c2ccccc2)c1.Cl.Cl` gave a melting point of 172 to 174 °C.
